{
  "source": "the NIST ThermoML archive (doi:10.1021/acs.jced.5b00857)",
  "key": {"[1]": {"conditions": "Crystal; DTA"}, "[2]": {"assay": "Molar enthalpy of transition or fusion", "conditions": "Crystal; DSC"}},
  "note": "± gives the expanded uncertainty stated by the source.",
  "data": [
    {"smiles": "O=C1OC[C@H]2[C@@H]1N(Cc1ccccc1)C(=O)N2Cc1ccccc1", "values": [
      {"measurement": "Normal melting temperature", "setting": "[1]", "value": "118.70 ± 1.1", "unit": "°C"},
      {"measurement": "Molar enthalpy of transition or fusion", "setting": "[2]", "value": "7.24 ± 0.454", "unit": "kcal/mol"}
    ]}
  ]
}
